The values below come from EP0398621A2, “Immunoassay of elastase-1” (SHIONOGI SEIYAKU KABUSHIKI KAISHA trading under the name of …, priority 1989, dated 1990).

Each structure is given as a SMILES string.

The subject of assay [1] is E1. In words: Radioimmunoassay standard curves of Boc-TACK-treated E1 and untreated E1. The assay is classed as binding, human. The conditions noted are these: standard curve of Boc-TACK-treated E1 compared with untreated E1. The procedure: (§1) As for measuring buffer solution, 0.01 M phosphate buffer (pH 7.4) containing 0.1 mM Boc-TACK, 0.9% sodium chloride, 0.05% sodium azide and 0.2% bovine serum albumin was used unless otherwise mentioned. One hundred µl of standard E1 solution (0.5 - 50ng/ml) or sample serum was taken into a polystyrene tube. To this were added 100 µl each of ¹²⁵I-labelled E1 solution and anti-E1 serum, which was then mixed and incubated for 3 hours at 37°C. Next, 500 µl of the preparation of the second antibody was added, which was mixed and incubated for 30 minutes at 37°C. The incubated product was centrifuged (3000 rpm, 5 minutes), after which the supernatant was removed by suction and the radioactivity of the precipitate was measured.
To evaluate the effect of Boc-TACK on the immunological reaction of E1, standard curves were drawn of Boc-TACK-treated E1 and untreated E1, and then comparison was made between the two.

The subject of assay [2] is ¹²⁵I-labelled E1. In words: Gel filtration: binding of serum inhibitor to ¹²⁵I-labelled E1 in human serum. The conditions noted are these: 30 minutes at 37°C, Ultrogel AcA 44, ¹²⁵I-labelled E1 treated with the inhibitor. The procedure:
To human serum was added ¹²⁵I-labelled E1, which was incubated for 30 minutes at 37°C. This was then subjected to gel filtration [Ultrogel AcA 44 (made by IBF Biotechnichs), ⌀ 1.5 x 55cm, developing solution: 0.1 M phosphate buffer (pH 7.1)]. The eluate was collected in 1-ml portions and the radioactivity in each fraction was measured.
When the human serum to which ¹²⁵I-labelled E1 not treated with Boc-TACK had been added was subjected to gel filtration, the ¹²⁵I-labelled E1 was all eluted in the fraction of its complex containing α₁-antitrypsin and α₂-macroglobulin (Fig. 1-a).
A general note: In gel filtration, larger molecules generally elute earlier.

Assay [3] has as its system ¹²⁵I-labelled E1. Briefly: Radioimmunoassay: effect of α₁-antitrypsin or α₂-macroglobulin on the binding rate of anti-E1 serum with ¹²⁵I-labelled E1. Set-up: species or system human. The procedure:
as §1
Radioimmunoassay was performed using α₁-antitrypsin or α₂-macroglobulin solution in place of the standard E1 solution, whereby the effect of these on the binding rate was examined. As for measuring buffer solution, one mentioned in above-mentioned (7) was used in one method (A method), and one not containing Boc-TACK was used in another method (B method), and one containing PMSF in place of Boc-TACK was used in third method (C method) (Fig. 2).

Assay [4] has as its system elastase-1. The conditions noted are these: prior art statement; cited from earlier work.

On to `CC(NC(=O)[C@H](C)NC(=O)[C@H](C)NC(=O)OC(C)(C)C)C(=O)CCl` (some centres unmarked) [Boc-TACK, Nα-[N-(tert-butoxycarbonyl)alanyl]-N-(3-chloro-1-methyl-2-oxopropyl)alanineamide], for which the “effect on the immunological reaction of E1” value in assay [1] is recorded as “did not affect the immunological reaction of E1 in any way”. The “elution of ¹²⁵I-labelled E1 in free fraction or complex fraction” value in assay [2] is reported as “none of it was found in the complex fraction”. The “binding rate with increases in serum inhibitor” value in assay [3] (α₁-antitrypsin or α₂-macroglobulin solution in place of standard E1, inhibitor in measuring buffer solution) is given as “little change was observed in the binding rate”. In assay [3] (α₂-macroglobulin in a high concentration, 0.1 mM Boc-TACK in measuring buffer solution), the “binding rate with α₂-macroglobulin in a high concentration” value is recorded as “only a slight decrease”.
`O=S(=O)(F)Cc1ccccc1` [PMSF, phenylmethanesulfonyl fluoride]: the “capability of inhibiting the binding of α₁-antitrypsin and α₂-macroglobulin to elastase-1” value in assay [4] is recorded as “weak capability”.
